The values that follow come from article PMC12304826, “Redirecting the Peptide Cleavage Causes Protease Inactivation” (Angewandte Chemie (International Ed. in English), 2025).

One assay addresses T1, human cathepsin S (Homo sapiens, UniProt P25774).
T1 construct: purchased Enzo Life Sciences, Lörrach, Germany
As to the kind of experiment: Cathepsin S inhibition assay (Cbz-Phe-Arg-AMC). It is filed as biochemical. The method, then: 1. Enzyme Inhibition Assays and Kinetic Data of Inhibition of Cathepsins B, L, K and S General. Human cathepsins were assayed either fluorimetrically or spectrophotometrically as noted below. The 10 mM inhibitor solutions were prepared in DMSO. The final concentration of DMSO in all assays was 2%. Non-linear regressions were conducted with GraFit 5. Residual cathepsin activity at an inhibitor concentration of 20 µM was determined from duplicate measurements based on the product formation after 60 min. Concentration dependent measurements were performed in duplicate measurements with five different inhibitor concentrations when the residual cathepsin activity in the presence of 20 µM inhibitor was below 70% (cathepsin B) or below 50% (cathepsins cathepsins L, K, and S). Progress curves were monitored for 60 min. First-order rate constants, kobs, were determined by non-linear regression following the equation [P] = vi × (1 – exp(-kobs × t))/kobs + d, where [P] is the product concentration, vi is the initial product formation rate, kobs is the observed first-order rate constant, and d is the offset. Mean values of kobs were plotted versus corresponding inhibitor concentrations [I], and second-order rate constants of inactivation, kinac/Ki, were obtained by linear regression. The equation kobs/[I] = (kinac/Ki)/(1 + [S]/Km) was used, where [S] is the substrate concentration and Km is the Michaelis-Menten constant. Standard errors (SE) refer to the linear regression. […]
methyl-coumarin (AMC)-based fluorogenic substrate Cbz-Leu-Arg-AMC was prepared in DMSO. The final concentration of the substrate was 40 μM (= 13.3 Km). When using the spectrofluorometer, into a cuvette containing 960 μL assay buffer, inhibitor solution and DMSO in a total volume of 16 μL, and 4 […]
When using the plate reader, into a well containing 192 µL assay buffer, inhibitor solution and DMSO in a total volume of 3.2 µL and 0.8 µL of the substrate solution were added and mixed. The reaction was initiated by adding 4 µL of the cathepsin K solution.
Cathepsin S inhibition assay.[2] Human recombinant cathepsin S (Enzo Life Sciences, Lörrach, […]
nm and for emission 440 nm. The reactions were followed at 25 °C. Assay buffer was 100 mM sodium phosphate buffer pH 6.0, 100 mM NaCl, 5 mM EDTA, and 0.01% Brij 35. A stock solution of human cathepsin S of 70 μg/mL in 100 mM MES buffer, pH 6.5, 1 mM EDTA, 50 mM L-cysteine, 10 mM DTT, 0.5% Triton X-100 and 30% glycerol was diluted 1:100 with a 50 mM sodium phosphate buffer pH 6.5, 50 mM NaCl, 2 mM EDTA, 0.01% Triton X-100 and 5 mM DTT and incubated for 60 min at 37 °C. A 10 mM stock solution of the fluorogenic substrate Cbz-Phe-Arg-AMC was prepared in DMSO.
The assay was performed with a final substrate concentration of 40 µM (= 0.74 Km). When using the spectrofluorometer, into a cuvette containing 920 μL assay buffer, inhibitor solution and DMSO in a total volume of 16 μL, and 4 μL of the substrate solution were added and mixed. The reaction was initiated by adding 60 μL of the cathepsin S solution. When using the plate reader, into a well containing 188 µL assay buffer, inhibitor solution and DMSO in a total volume of 3.2 µL and 0.8 µL of the substrate solution were added and mixed. The reaction was initiated by adding […] of the cathepsin S solution.

The next assay concerns the target T2, human cathepsin L (Homo sapiens, UniProt P07711).
T2 construct: purchased Enzo Life Sciences, Lörrach, Germany
As to the kind of experiment: Cathepsin L inhibition assay (Cbz-Phe-Arg-pNA). It is filed as biochemical. The method, then:
1. Enzyme Inhibition Assays and Kinetic Data of Inhibition of Cathepsins B, L, K and S General. Human cathepsins were assayed either fluorimetrically or spectrophotometrically as noted below. The 10 mM inhibitor solutions were prepared in DMSO. The final concentration of DMSO in all assays was 2%. Non-linear regressions were conducted with GraFit 5. Residual cathepsin activity at an inhibitor concentration of 20 µM was determined from duplicate measurements based on the product formation after 60 min. Concentration dependent measurements were performed in duplicate measurements with five different inhibitor concentrations when the residual cathepsin activity in the presence of 20 µM inhibitor was below 70% (cathepsin B) or below 50% (cathepsins cathepsins L, K, and S). Progress curves were monitored for 60 min. First-order rate constants, kobs, were determined by non-linear regression following the equation [P] = vi × (1 – exp(-kobs × t))/kobs + d, where [P] is the product concentration, vi is the initial product formation rate, kobs is the observed first-order rate constant, and d is the offset. Mean values of kobs were plotted versus corresponding inhibitor concentrations [I], and second-order rate constants of inactivation, kinac/Ki, were obtained by linear regression. The equation kobs/[I] = (kinac/Ki)/(1 + [S]/Km) was used, where [S] is the substrate concentration and Km is the Michaelis-Menten constant. Standard errors (SE) refer to the linear regression. […] Cathepsin L inhibition assay.[1] Human isolated cathepsin L (Enzo Life Sciences, Lörrach, Germany) was assayed spectrophotometrically on a Cary 50 or 100 Bio, Varian, at 405 nm. The reactions were followed at 37 °C. Assay buffer was 100 mM sodium phosphate buffer pH 6.0, 100 mM NaCl, 5 mM EDTA, and 0.01% Brij 35. A stock solution of human cathepsin L of 135 μg/mL in 20 mM malonate buffer pH 5.5, 400 mM NaCl, and 1 mM EDTA was diluted 1:100 with assay buffer containing 5 mM DTT and incubated for 30 min at 37 °C. A 10 mM stock solution of the chromogenic substrate Cbz-Phe-Arg-pNA was prepared in DMSO. The final concentration of the substrate was 100 μM (= 5.88 Km).
Into a cuvette containing 940 μL assay buffer, inhibitor solution and DMSO in a total volume of 10 μL, and 10 μL of the substrate solution were added and mixed. The reaction was initiated by adding 40 μL of the cathepsin L solution.

Where [1] appears, read: 20 µM inhibitor, 60 min, read-out: Residual activity @ 20 µM (%) Cat S.
Where [2] appears, read: 20 µM inhibitor, 60 min, read-out: Residual activity @ 20 µM (%) Cat L.
The mark [3] stands for this setting: inhibitor not soluble at 20 µM, calculated for 20 µM from IC50 at two lower concentrations, read-out: Residual activity @ 20 µM (%) Cat L, approximated [e].
Setting [4] is: inhibitor not soluble at 20 µM, calculated for 20 µM from IC50 at two lower concentrations, read-out: Residual activity @ 20 µM (%) Cat S, approximated [e].

Read-outs that look alike come from different tables or passages of the source.

T2 sequence (P07711 114-333): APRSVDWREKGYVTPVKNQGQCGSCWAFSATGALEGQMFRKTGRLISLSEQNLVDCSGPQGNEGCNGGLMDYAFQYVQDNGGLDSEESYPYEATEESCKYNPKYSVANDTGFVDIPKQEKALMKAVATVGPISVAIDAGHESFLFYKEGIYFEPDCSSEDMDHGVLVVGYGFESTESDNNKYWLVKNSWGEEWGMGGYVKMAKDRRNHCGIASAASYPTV
T1 sequence (P25774 115-331): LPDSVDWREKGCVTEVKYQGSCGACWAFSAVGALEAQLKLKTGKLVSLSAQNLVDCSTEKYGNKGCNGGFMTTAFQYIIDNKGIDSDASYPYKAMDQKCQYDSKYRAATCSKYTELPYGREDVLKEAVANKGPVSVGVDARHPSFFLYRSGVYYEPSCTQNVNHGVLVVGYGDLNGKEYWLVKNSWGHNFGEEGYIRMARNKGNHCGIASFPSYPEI

For the compound `CC(C)CC(NC(=O)Oc1ccccc1)C(=O)NC(Cc1ccccc1)C(=O)O` (stereo not drawn) [Compound 1], the remaining activity at 20 µM at human cathepsin S (setting [1]) turned out to be 97%; on human cathepsin L (setting [2]) it was 94%.

With `CC(C)C[C@H](NC(=O)Oc1ccc(Cl)cc1)C(=O)N[C@@H](Cc1ccccc1)C(=O)OC(C)(C)C` [Compound 2], the remaining activity at 20 µM was no less than 98% on human cathepsin S (setting [1]) and 96% on human cathepsin L (setting [2]).

For the compound `COC(=O)C(Cc1ccccc1)NC(=O)C(CC(C)C)NC(=O)Oc1ccc(Cl)cc1` (stereo not drawn) [Compound 3], the remaining activity at 20 µM turned out to be 79% on human cathepsin S (setting [1]) and 85% at human cathepsin L (setting [2]).

Take `CC(C)C[C@H](NC(=O)Oc1ccc(Cl)cc1)C(=O)N[C@@H](Cc1ccccc1)C(=O)O` [Compound 4]: the remaining activity at 20 µM was 83% on human cathepsin S (setting [1]) and 92% at human cathepsin L (setting [2]).

`CC(C)CC(CNC(=O)Oc1ccc(Cl)cc1)C(=O)N[C@H](Cc1ccccc1)C(=O)O` (stereo partly drawn) [Compound 5]: on human cathepsin S (five inhibitor concentrations, 60 min progress curves), the “kinac/Ki ± SE Cat S” value was 10.2 M⁻¹ s⁻¹. The remaining activity at 20 µM on human cathepsin L (setting [2]) is 90%.

As for `O=C(NC(CC1CCCCC1)C(=O)NC(Cc1ccccc1)C(=O)O)Oc1ccc(Cl)cc1` (stereo not drawn) [Compound 7], the remaining activity at 20 µM was 72% at human cathepsin S (setting [1]) and 86% at human cathepsin L (setting [2]).

Turning to `CC(C)C[C@H](NC(=O)Oc1ccc(Cl)cc1)C(=O)N1CCC[C@H]1C(=O)O` [Compound 8], the remaining activity at 20 µM on human cathepsin S (setting [1]) was no less than 98%; at human cathepsin L (setting [2]), 97%.

As to `CC(C)CC(CNC(=O)Oc1ccc(Cl)cc1)C(=O)N1CCC[C@@H]1C(=O)O` (stereo partly drawn) [Compound 9], the remaining activity at 20 µM at human cathepsin S (setting [1]) came to 92%; at human cathepsin L (setting [2]), 95%.

Regarding `CC(C)C[C@H](NC(=O)Oc1ccc(Cl)cc1)C(=O)N1CCCC[C@H]1C(=O)O` [Compound 10], the remaining activity at 20 µM is no less than 98% on human cathepsin S (setting [1]) and 91% at human cathepsin L (setting [2]).

In the case of `CC(C)C[C@@H](C(=O)N1CCC[C@H]1C(=O)O)N(C)C(=O)Oc1ccc(Cl)cc1` [Compound 15], the remaining activity at 20 µM on human cathepsin S (setting [1]) is no less than 98%; on human cathepsin L (setting [2]), 97%.

Take `CC(C)CC(OC(=O)Nc1ccc(Cl)cc1)C(=O)N[C@@H](Cc1ccccc1)C(=O)O` (stereo partly drawn) [Compound 16]: the remaining activity at 20 µM on human cathepsin S (setting [1]) was 56%; on human cathepsin L (setting [2]) it was 95%.

Take `CC(C)CC(OC(=O)Nc1ccc(Cl)cc1)C(=O)N1CCC[C@H]1C(=O)O` (stereo partly drawn) [Compound 17]: the figures for the remaining activity at 20 µM on human cathepsin S (setting [1]) and on human cathepsin L (setting [2]) were 93% and 94%, respectively.

In the case of `CC(C)C[C@H](NC(=O)Nc1ccc(Cl)cc1)C(=O)N[C@@H](Cc1ccccc1)C(=O)O` [Compound 18], the values for the remaining activity at 20 µM at human cathepsin S (setting [1]) and at human cathepsin L (setting [2]) were 78% and 94%, respectively.

On to `CC(C)C[C@H](NC(=O)Nc1ccc(Cl)cc1)C(=O)N1CCC[C@H]1C(=O)O` [Compound 19], for which the remaining activity at 20 µM is no less than 98% on human cathepsin S (setting [1]) and 96% at human cathepsin L (setting [2]).

On to `CC(C)C[C@H](NC(=O)Oc1ccc(Cl)c(NC(=O)Cc2ccccc2)c1)C(=O)N1CCC[C@H]1C(=O)O` [Compound 20], for which the results for the remaining activity at 20 µM at human cathepsin S (setting [1]) and at human cathepsin L (setting [2]) were 93% and 96%, respectively.

Turning to `CC(C)C[C@H](NC(=O)Oc1ccc(-c2ccccc2)c(NC(=O)Cc2ccccc2)c1)C(=O)N1CCC[C@H]1C(=O)O` [Compound 21], the results for the remaining activity at 20 µM on human cathepsin S (setting [1]) and at human cathepsin L (setting [2]) were 89% and 92%, respectively.

With `CC(C)CC(NC(=O)Oc1ccc(Cl)c(NC(=O)C(c2ccccc2)c2ccccc2)c1)C(=O)N1CCCC1C(=O)O` (stereo not drawn) [Compound 22], the remaining activity at 20 µM on human cathepsin S (setting [1]) was 87%; on human cathepsin L (setting [3]), 59%.

Consider `CC(C)C[C@H](NC(=O)Oc1cccc(Cl)c1)C(=O)N1CCC[C@H]1C(=O)O` [Compound 23], for which the values for the remaining activity at 20 µM on human cathepsin S (setting [1]) and on human cathepsin L (setting [2]) were 89% and 92%, respectively.

With `CC(C)C[C@H](NC(=O)Oc1ccc(NC(=O)Cc2ccccc2)c(Cl)c1)C(=O)N1CCC[C@H]1C(=O)O` [Compound 24], the values for the remaining activity at 20 µM at human cathepsin S (setting [1]) and at human cathepsin L (setting [2]) were 90% and 97%, respectively.

Turning to `CC(C)CC(NC(=O)Oc1ccc(NC(=O)c2ccc(-c3ccccc3)cc2)c(Cl)c1)C(=O)N1CCCC1C(=O)O` (stereo not drawn) [Compound 25], the remaining activity at 20 µM on human cathepsin S (setting [4]) is 53%; on human cathepsin L (setting [2]), 94%.

As for `CC(C)C[C@H](NC(=O)Oc1ccc(NC(=O)N(Cc2ccccc2)Cc2ccccc2)c(Br)c1)C(=O)N1CCC[C@H]1C(=O)O` [Compound 26], the remaining activity at 20 µM at human cathepsin S (setting [1]) is 59%.

Turning to `CC(C)CC(NC(=O)Oc1ccc(NC(=O)C(c2ccccc2)c2ccccc2)c(Br)c1)C(=O)N1CCCC1C(=O)O` (stereo not drawn) [Compound 27], the results for the remaining activity at 20 µM on human cathepsin S (setting [1]) and on human cathepsin L (setting [2]) were 60% and 81%, respectively.

For `CC(C)CC(NC(=O)Oc1ccc(NC(=O)C(c2ccccc2)c2ccccc2)c(Cl)c1)C(=O)N1CCCC1C(=O)O` (stereo not drawn) [Compound 28], the remaining activity at 20 µM at human cathepsin S (setting [1]) was 58%; at human cathepsin L (setting [3]), 62%.

Take `CC(C)CC(NC(=O)Oc1ccc(NC(=O)C(c2ccccc2)c2ccccc2)c(Cl)c1)C(=O)NC(Cc1ccccc1)C(=O)O` (stereo not drawn) [Compound 29]: the figures for the remaining activity at 20 µM at human cathepsin S (setting [4]) and at human cathepsin L (setting [3]) were 63% and 70%, respectively.

`O=C(NC(CC1CCCCC1)C(=O)NC(Cc1ccccc1)C(=O)O)Oc1ccc(NC(=O)C(c2ccccc2)c2ccccc2)c(Cl)c1` (stereo not drawn) [Compound 30]: the remaining activity at 20 µM is 42% at human cathepsin S (setting [4]) and 64% at human cathepsin L (setting [3]).

Consider `O=C(NC(CC1CCCCC1)C(=O)NC(Cc1ccccc1)C(=O)O)Oc1ccc(NC(=O)C(Cc2ccccc2)Cc2ccccc2)c(Cl)c1` (stereo not drawn) [Compound 31], for which the remaining activity at 20 µM on human cathepsin S (setting [4]) is 46%; on human cathepsin L (setting [3]) it was 76%.
